Patent US8796268B2, “Heteroaryls and uses thereof” (Millennium Pharmaceuticals, Inc., priority 2010, dated 2014)
Counter-ions that a name gives are not always drawn.

How the values were obtained:
Format in all cases: biochemical
Human PI3K delta = target: T1, Human PI3K delta (Homo sapiens, UniProt O00329); assay: Human PI3K delta enzyme assay (HTRF); settings: at a 1.0 μM concentration; read-out: PI3Kδ Percent Inhibition
T1 construct: His (N); host or cells: SF9 insect cells (baculovirus)
Outline: (§1)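 Compounds were mixed with 25 uM ATP, then with 3.5 uM di-C8 PI(4,5)P2 and His-tagged PI3K isoform (β 5.25 nM, δ 0.75 nM, γ 5 nM) at pH 7.00. After 30 min at room temperature, EDTA stopped the reaction and PIP3 was measured by HTRF over 1 h.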

Human VPS34 = target: T2, Human VPS34 (Homo sapiens, UniProt Q8NEB9); assay: Human VPS34 enzyme assay (Adapta Universal Kinase Assay); settings: at a 1.0 μM concentration; read-out: VPS34 Percent Inhibition
T2 construct: GST (with thrombin site, pDEST20-Thrombin) (N); host or cells: SF9 insect cells (baculovirus)
Description: The catalytic subunits of PI3Ks are cloned into either pDEST8(p110 alpha) or pDEST10(p110beta, p110delta, and p110gamma) as N-terminal His tagged fusion proteins using the Gateway system (Invitrogen, catalog#11804-010 for pDEST8 and 11806-015 for pDEST10). The sequences are verified before recombinant protein expression using the Baculovirus Expression System with Gateway® Technology. The accession numbers for the subunits are as follows: • p110 alpha (GB:U79143) • p110beta (GB: S67334) • p110delta (GB: U86453) • p110gamma (GB: X83368) • The regulatory subunits of PI3Ks are cloned into pDEST8 as un-tagged protein using the Gateway system (Catalog#11804-010). The sequences are verified before recombinant protein expression using the Baculovirus Expression System with Gateway® Technology. The accession numbers for the subunits are as following: • p85 alpha (GB: BC030815) • p101(GB: AB028925) • VPS34 (accession number GB:BC033004) is cloned into pDEST20—Thombin as N-terminal GST tagged fusion proteins using the Gateway system (Invitrogen, catalog#11804-013). The sequences are verified before recombinant protein expression using the Baculovirus Expression System with Gateway® Technology.
For expression VPS34 was infected at 1MOI in SF9 cells and harvested 72 hours post infection.
For purification, VPS34 is purified by Glutathione Sepharose 4 Fast Flow (GE Healthcare #17-5132-03) followed by HiTrap Q (GE Healthcare #17-1153-01).
3) VPS34 is assayed using Adapta™ Universal Kinase Assay Kit (Invitrogen).
4) Human VPS34 enzyme assay method
100 nL compounds in DMSO are added to wells of a 384 well microtitre plate (Greiner 780076). At room temperature: 5 ul VPS34 reaction buffer (Invitrogen Assay Buffer Q (diluted 1 in 5 with nanopure water) plus 2 mM DTT and 2 mM MnCl2) containing ATP (20 uM, Promega) and 200 uM PI—PS substrate (Invitrogen PV5122) is added followed immediately by 5 ul VPS34 reaction buffer (as above) containing VPS34 (5 nM, Millennium Protein Sciences Group) and the mixture is incubated with shaking at room temperature for 1 hour. Then 5 ul VPS34 stop-detect mix (as per Invitrogen Adapta Assay kit (PV5009) instructions (contains kinase quench buffer, TR-FRET buffer, Adapta Eu anti-ADP antibody and Alexa Fluor 647 ADP tracer)) is added to quench the reaction. The plates are then incubated for 30 minutes at room temperature with shaking and then read on a BMG PheraStar Plus reader.
For the assay methods described above, test compound percent inhibition, at various concentrations, is calculated relative to control (DMSO and EDTA) treated samples. Compound concentration versus percent inhibition curves are fitted to generate IC50 values. One skilled in the art will appreciate that the values generated either as percentage inhibition at a single concentration or IC50 values are subject to experimental variation.

Human PI3K gamma = target: T3, Human PI3K gamma (Homo sapiens, UniProt P48736); assay: Human PI3K gamma enzyme assay (HTRF); settings: at a 1.0 μM concentration; read-out: PI3Kγ Percent Inhibition
T3 construct: His (N); host or cells: SF9 insect cells (baculovirus)
Outline: as §1

Human PI3K alpha = target: T4, Human PI3K alpha (Homo sapiens, UniProt P42336); assay: Human PI3K alpha enzyme assay (HTRF); settings: at a 1.1 μM concentration; read-out: PI3Kα Percent Inhibition
T4 construct: His (N); host or cells: SF9 insect cells (baculovirus)

Human PI3K beta = target: T5, Human PI3K beta (Homo sapiens, UniProt P42338); assay: Human PI3K beta enzyme assay (HTRF); settings: at a 1.1 μM concentration; read-out: PI3β Percent Inhibition
T5 construct: His (N); host or cells: SF9 insect cells (baculovirus)
Outline: as §1

T2 sequence (Q8NEB9 whole entry): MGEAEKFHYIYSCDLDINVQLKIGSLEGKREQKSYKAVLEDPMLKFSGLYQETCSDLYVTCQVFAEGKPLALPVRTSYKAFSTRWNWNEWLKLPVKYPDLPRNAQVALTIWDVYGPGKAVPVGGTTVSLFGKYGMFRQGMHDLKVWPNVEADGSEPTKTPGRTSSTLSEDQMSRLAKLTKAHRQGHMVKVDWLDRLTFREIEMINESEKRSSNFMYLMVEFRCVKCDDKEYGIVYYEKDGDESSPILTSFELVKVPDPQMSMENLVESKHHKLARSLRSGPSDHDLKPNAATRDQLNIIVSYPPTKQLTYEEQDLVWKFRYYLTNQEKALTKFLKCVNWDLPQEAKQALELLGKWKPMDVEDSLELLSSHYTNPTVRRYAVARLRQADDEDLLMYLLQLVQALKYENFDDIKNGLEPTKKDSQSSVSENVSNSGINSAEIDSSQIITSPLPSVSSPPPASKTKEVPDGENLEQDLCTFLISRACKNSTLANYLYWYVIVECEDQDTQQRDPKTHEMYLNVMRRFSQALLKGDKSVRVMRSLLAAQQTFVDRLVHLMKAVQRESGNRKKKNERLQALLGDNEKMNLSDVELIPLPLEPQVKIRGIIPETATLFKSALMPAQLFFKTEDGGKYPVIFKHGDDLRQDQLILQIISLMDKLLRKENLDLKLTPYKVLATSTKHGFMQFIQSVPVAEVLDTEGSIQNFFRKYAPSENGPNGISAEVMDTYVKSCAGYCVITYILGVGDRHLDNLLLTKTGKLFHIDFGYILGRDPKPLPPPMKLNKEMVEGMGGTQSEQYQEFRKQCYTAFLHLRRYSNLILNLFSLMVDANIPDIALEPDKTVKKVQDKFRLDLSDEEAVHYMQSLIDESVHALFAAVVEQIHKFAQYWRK
T3 sequence (P48736 whole entry): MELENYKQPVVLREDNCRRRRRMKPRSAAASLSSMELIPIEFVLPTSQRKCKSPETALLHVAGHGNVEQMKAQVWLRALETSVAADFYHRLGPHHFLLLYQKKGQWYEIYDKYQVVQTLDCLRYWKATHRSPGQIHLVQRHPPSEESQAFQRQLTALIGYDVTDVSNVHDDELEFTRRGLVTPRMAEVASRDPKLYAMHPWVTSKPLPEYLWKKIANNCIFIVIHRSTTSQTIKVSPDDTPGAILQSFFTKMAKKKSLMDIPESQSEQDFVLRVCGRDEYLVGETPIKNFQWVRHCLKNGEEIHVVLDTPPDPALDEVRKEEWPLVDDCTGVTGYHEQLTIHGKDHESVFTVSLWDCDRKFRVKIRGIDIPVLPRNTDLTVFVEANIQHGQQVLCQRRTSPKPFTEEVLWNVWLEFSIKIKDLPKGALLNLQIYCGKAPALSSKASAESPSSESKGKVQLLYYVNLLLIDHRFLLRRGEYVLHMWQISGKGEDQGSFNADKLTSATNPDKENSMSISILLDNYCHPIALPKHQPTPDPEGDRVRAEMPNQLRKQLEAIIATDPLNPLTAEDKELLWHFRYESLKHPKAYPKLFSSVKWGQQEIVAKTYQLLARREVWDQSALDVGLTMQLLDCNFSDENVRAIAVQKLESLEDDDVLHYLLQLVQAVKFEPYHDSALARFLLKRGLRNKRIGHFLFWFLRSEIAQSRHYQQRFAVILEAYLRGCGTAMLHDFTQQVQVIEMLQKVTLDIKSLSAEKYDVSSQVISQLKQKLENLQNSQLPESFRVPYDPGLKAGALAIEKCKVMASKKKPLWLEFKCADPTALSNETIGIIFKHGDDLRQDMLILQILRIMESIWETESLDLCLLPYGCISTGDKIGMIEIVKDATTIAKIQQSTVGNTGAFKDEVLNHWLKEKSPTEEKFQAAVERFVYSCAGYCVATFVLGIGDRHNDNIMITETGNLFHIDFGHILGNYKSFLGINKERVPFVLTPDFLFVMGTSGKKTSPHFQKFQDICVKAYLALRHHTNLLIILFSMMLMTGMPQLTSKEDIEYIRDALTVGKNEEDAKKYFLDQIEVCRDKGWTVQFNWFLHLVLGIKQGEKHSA
T1 sequence (O00329 whole entry): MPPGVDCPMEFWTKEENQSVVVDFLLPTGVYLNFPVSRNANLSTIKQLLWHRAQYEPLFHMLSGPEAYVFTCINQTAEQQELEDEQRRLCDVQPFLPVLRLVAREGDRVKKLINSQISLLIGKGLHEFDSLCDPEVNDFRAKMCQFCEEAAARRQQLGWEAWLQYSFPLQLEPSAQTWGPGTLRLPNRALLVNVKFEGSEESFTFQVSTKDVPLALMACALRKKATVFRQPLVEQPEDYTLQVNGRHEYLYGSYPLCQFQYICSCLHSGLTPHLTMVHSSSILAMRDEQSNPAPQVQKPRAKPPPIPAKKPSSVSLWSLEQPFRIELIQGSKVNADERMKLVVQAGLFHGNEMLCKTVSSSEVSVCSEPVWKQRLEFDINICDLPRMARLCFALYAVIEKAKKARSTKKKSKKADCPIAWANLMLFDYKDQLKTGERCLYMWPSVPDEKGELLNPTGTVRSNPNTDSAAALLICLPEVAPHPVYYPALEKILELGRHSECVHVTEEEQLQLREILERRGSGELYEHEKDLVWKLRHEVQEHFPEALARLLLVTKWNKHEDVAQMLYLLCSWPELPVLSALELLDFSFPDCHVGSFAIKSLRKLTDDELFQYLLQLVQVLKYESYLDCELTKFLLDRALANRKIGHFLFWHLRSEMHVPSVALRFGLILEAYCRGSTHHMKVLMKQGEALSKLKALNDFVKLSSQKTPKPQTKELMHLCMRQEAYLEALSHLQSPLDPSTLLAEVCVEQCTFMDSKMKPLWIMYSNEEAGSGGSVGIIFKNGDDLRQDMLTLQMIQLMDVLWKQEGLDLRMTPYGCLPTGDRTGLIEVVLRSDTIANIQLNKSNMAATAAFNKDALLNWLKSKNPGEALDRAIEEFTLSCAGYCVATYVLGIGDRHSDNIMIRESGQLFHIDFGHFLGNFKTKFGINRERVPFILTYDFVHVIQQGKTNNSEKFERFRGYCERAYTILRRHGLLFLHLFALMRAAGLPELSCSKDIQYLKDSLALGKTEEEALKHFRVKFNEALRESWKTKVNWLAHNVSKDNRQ
T1 sequence (P27986 whole entry partner): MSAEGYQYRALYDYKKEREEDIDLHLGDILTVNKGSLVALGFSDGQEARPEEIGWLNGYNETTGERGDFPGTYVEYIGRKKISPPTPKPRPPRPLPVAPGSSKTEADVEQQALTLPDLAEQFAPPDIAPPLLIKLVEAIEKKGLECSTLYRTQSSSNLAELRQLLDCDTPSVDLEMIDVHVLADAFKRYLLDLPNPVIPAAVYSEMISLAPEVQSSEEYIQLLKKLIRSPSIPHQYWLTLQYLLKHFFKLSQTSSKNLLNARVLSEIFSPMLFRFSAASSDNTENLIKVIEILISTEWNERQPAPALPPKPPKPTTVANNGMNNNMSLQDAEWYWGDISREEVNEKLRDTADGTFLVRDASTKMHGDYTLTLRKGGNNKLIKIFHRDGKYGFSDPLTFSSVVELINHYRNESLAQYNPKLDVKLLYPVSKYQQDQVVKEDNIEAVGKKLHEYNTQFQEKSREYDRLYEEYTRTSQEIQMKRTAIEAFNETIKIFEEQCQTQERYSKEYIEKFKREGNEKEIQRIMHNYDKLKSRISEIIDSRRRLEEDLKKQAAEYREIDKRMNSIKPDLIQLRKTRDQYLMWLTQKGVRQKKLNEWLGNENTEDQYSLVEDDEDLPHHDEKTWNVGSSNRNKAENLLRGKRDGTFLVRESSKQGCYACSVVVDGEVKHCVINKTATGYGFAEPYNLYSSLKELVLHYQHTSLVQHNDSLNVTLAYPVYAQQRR
T4 sequence (P42336 whole entry): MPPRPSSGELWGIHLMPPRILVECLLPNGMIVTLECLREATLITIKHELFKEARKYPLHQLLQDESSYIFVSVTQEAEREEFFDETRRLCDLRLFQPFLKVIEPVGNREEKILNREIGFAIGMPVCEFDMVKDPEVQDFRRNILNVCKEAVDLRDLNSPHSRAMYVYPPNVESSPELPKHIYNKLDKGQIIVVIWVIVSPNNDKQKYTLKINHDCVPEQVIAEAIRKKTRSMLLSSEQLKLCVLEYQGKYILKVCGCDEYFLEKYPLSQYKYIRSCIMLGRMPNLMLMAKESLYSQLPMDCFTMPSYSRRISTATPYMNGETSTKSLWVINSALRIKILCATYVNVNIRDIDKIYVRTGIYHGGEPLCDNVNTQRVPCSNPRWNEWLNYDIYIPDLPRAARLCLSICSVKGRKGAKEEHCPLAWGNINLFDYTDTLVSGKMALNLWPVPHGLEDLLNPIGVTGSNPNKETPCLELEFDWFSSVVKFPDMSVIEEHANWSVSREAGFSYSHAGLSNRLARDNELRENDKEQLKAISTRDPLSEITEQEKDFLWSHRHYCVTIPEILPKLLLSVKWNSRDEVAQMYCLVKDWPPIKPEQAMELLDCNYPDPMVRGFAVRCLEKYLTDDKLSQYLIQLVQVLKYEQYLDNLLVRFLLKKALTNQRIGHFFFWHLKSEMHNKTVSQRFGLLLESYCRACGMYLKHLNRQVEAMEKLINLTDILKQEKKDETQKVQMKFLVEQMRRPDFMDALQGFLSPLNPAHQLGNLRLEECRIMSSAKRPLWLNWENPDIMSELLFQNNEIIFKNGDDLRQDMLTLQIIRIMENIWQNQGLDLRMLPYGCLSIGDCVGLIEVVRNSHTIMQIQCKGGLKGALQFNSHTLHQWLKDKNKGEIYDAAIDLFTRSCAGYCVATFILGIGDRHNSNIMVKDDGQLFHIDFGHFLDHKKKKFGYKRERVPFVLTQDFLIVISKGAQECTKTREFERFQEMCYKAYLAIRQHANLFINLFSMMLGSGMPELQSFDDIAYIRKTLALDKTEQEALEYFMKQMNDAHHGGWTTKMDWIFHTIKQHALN
T4 sequence (P27986 whole entry partner): as the sequence (P27986 whole entry partner) above

Structure (SMILES) | inhibition at 1 µM (Human PI3K delta) | inhibition at 1 µM (Human VPS34) | inhibition at 1 µM (Human PI3K gamma) | inhibition at 1.1 µM (Human PI3K alpha) | inhibition at 1.1 µM (Human PI3K beta)
N#Cc1c(N2CCOCC2)sc(C(=O)O)c1Cc1ccc2ccccc2c1 [Compound 112] | 114% | 37.8% | 69% | 95% | 110%
N#Cc1c(N2CCOCC2)sc(C(=O)O)c1C(N)c1ccc(Cl)cc1 (stereo not shown) [Compound 113, 3-[amino(4-chlorophenyl)methyl]-4-cyano-5-(morpholin-4-yl)thiophene-2-carboxylic acid hydrochloride] | 78.8% | 18.1% | 32.5% | 25% | 100%
O=C(O)c1sc(N2CCOCC2)nc1Cc1ccc(Cl)c(Cl)c1 [Compound 114] | 113% | 131% | 56.9% | 40% | 106%
N#Cc1ccc(Cc2c(C(=O)O)sc(N3CCOCC3)c2C#N)cc1 [Compound 115] | 63% | 39.7% | 12% | 45% | 97%
N#Cc1c(N2CCOCC2)sc(C(=O)O)c1Cc1ccc(Cl)cc1 [Compound 116] | 83% | 54.2% | 36.7% | 46% | 98%
COc1ccc(Cc2c(C(=O)O)sc(N3CCOCC3)c2C#N)c(Cl)c1 [Compound 117] | 78.5% | 28.6% | 14.7% | 48% | 94%
O=C(O)c1sc(N2CCOCC2)nc1Cc1ccc(Cl)c(F)c1 [Compound 118, 4-(4-chloro-3-fluorobenzyl)-2-morpholin-4-yl-1,3-thiazole-5-carboxylic acid] | 89.3% | 68.2% | 27.5% | 28% | 104%
O=C(O)c1sc(N2CCOCC2)nc1Cc1ccc(F)cc1 [Compound 119] | 62.6% | 19.5% | 7.6% | 9% | 88%
COc1ccc(Cc2nc(N3CCOCC3)sc2C(=O)O)c(Cl)c1 [Compound 120] | 77% | 38.3% | 11% | 18% | 97%
CC(c1ccc(Cl)cc1)c1nc(N2CCOCC2)sc1C(=O)O (stereo not shown) [Compound 121, 4-[1-(4-chlorophenyl)ethyl]-2-(morpholin-4-yl)-1,3-thiazole-5-carboxylic acid] | 77.3% | 64.8% | 7.3% | 11% | 59%
COc1cc(Cc2c(C(=O)O)sc(N3CCOCC3)c2C#N)ccc1Cl [Compound 122] | 96.2% | 55.2% | 49.6% | 49% | 106%

The next lines start with the values.

inhibition at 1 µM (Human PI3K delta) | inhibition at 1 µM (Human VPS34) | inhibition at 1 µM (Human PI3K gamma) | inhibition at 1.1 µM (Human PI3K alpha) | inhibition at 1.1 µM (Human PI3K beta) | Structure (SMILES)
96.8% | 45.1% | 36.6% | 64% | 105% | N#Cc1c(N2CCOCC2)sc(C(=O)O)c1Cc1ccc(Cl)cc1F [Compound 123]
112% | 78.8% | 74.2% | 79% | 109% | N#Cc1c(N2CCOCC2)sc(C(=O)O)c1Cc1ccc(Cl)c(Cl)c1 [Compound 124]
85.1% | 37.1% | 25.9% | 46% | 99% | COc1cc(Cl)ccc1Cc1c(C(=O)O)sc(N2CCOCC2)c1C#N [Compound 125]
100% | 44% | 37.6% | 42% | 103% | N#Cc1c(N2CCOCC2)sc(C(=O)O)c1Cc1c(F)cc(Cl)cc1F [Compound 126]
100% | 33.7% | 55% | 40% | 110% | COc1cc(Cc2c(C(=O)O)sc(N3CCOCC3)c2C#N)c(F)cc1Cl [Compound 127]
114% | 88.1% | 63.4% | 46% | 106% | O=C(O)c1sc(N2CCOCC2)nc1Cc1ccc2cc(F)ccc2c1 [Compound 128]
